Non-standard residues stand in square brackets, D forms with d. *: point of attachment. dPhe(4-Cl) = N[C@H](Cc1ccc(Cl)cc1)C(=O)O; Heptanoyl = CCCCCCC(=O)*; Nle = CCCC[C@H](N)C(=O)O; Bn = c1ccc(C*)cc1
Legend:
[1] = biological target: T1, hMC4-R (Homo sapiens, UniProt P32245); test: Competitive inhibition binding assay, 125I-NDP-MSH, hMC4-R; settings: 1 μM metallopeptide; 0.4 nM 125I-NDP-MSH; hMC4-R membranes
T1 construct: expressed in transfected cells
Protocol: (§1) A competitive inhibition binding assay was conducted using membranes prepared from hMC3-R, hMC4-R, hMC5-R, and B-16 mouse melanoma cells (containing MC1-R) using 0.4 nM ^125I-NDP-MSH (0.2 nM for MC1-R) (New England Nuclear, Boston, Mass., USA) in 50 mM HEPES buffer containing 1 mM MgCl2, 2 mM CaCl2, and 5 mM KCl, at pH 7.2. The assay tube also contained a chosen concentration of the metallopeptides of this invention, at a 1 μM concentration, for determining inhibition of the binding of ^125I-NDP-MSH to its receptor. Non-specific binding was measured by complete inhibition of binding of ^125I-NDP-MSH in the assay in the presence of 1 μM α-MSH. Incubation was for 90 minutes at 37° C., after which the assay mixture was filtered and the membranes washed three times with ice cold buffer. The filter was dried and counted in a gamma counter for remaining radioactivity bound to the membranes. 100% specific binding was defined as the difference in radioactivity (cpm) bound to cell membranes in the absence and presence of 1 μM α-MSH. The cpm obtained in the presence of metallopeptides of this invention were normalized with respect to 100% specific binding to determine the percent inhibition of ^125I-NDP-MSH binding. Each assay was conducted in triplicate.

[2] = biological target: T2, hMC3-R (Homo sapiens, UniProt P41968); test: Competitive inhibition binding assay, 125I-NDP-MSH, hMC3-R; settings: 1 μM metallopeptide; 0.4 nM 125I-NDP-MSH; hMC3-R membranes
T2 construct: expressed in transfected cells
T2 sequence (P41968 whole entry): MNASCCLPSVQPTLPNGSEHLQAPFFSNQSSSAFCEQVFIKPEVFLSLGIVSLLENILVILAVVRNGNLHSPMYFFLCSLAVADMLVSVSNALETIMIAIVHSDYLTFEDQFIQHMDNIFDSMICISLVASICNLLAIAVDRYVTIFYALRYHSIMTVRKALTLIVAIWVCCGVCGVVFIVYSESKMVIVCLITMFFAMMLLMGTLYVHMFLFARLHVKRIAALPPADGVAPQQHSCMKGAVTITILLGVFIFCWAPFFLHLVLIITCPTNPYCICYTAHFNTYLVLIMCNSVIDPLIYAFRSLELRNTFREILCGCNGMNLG
Protocol: as §1

[3] = biological target: T3, MC1-R (B-16 mouse melanoma cells) (Mus musculus, UniProt Q01727); test: Competitive inhibition binding assay, 125I-NDP-MSH, MC1-R; settings: 1 μM metallopeptide; 0.2 nM 125I-NDP-MSH; B-16 mouse melanoma cell membranes
T3 construct: membranes prepared from hMC3-R, hMC4-R, hMC5-R, and B-16 mouse melanoma cells (containing MC1-R); endogenous in cells; host or cells: B-16 mouse melanoma cells
T3 sequence (Q01727 whole entry): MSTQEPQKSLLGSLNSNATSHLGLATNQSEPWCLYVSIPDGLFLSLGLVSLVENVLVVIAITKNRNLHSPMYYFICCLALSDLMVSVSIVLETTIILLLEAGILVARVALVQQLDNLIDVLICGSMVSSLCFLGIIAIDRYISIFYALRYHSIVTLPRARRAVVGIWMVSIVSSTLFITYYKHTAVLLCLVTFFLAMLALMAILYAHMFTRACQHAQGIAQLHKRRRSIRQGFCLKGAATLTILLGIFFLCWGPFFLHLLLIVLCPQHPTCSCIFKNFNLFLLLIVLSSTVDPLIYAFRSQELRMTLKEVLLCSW
Protocol: as §1

[4] = biological target: T4, hMC5-R (Homo sapiens, UniProt P33032); test: Competitive inhibition binding assay, 125I-NDP-MSH, hMC5-R; settings: 1 μM metallopeptide; 0.4 nM 125I-NDP-MSH; hMC5-R membranes
T4 construct: expressed in transfected cells
T4 sequence (P33032 whole entry): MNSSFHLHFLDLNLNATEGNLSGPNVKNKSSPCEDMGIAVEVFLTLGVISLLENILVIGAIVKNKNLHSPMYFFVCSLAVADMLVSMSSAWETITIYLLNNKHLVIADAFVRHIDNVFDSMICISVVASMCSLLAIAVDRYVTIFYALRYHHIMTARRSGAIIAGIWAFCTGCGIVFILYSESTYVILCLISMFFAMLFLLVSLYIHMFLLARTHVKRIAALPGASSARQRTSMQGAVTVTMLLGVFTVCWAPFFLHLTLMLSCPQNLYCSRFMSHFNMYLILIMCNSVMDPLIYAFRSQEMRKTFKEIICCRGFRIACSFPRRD
Protocol: as §1

T1 sequence (P32245 whole entry): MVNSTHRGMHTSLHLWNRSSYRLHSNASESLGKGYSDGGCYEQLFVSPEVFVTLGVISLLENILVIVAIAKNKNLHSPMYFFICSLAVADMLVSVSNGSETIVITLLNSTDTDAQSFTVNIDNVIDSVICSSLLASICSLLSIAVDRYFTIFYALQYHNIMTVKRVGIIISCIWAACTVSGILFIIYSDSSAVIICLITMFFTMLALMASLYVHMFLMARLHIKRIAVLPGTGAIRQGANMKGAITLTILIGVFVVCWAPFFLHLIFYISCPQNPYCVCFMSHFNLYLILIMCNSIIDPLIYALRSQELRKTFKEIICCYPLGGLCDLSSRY

| Percent Inhibition at 1 μM MC4-R [1] | Percent Inhibition at 1 μM MC3-R [2] | Percent Inhibition at 1 μM MC1-R [3] | Percent Inhibition at 1 μM MC5-R [4] | Substance |
| --- | --- | --- | --- | --- |
| 23% | 0% | 14% | 9% | Ac-[Nle]AH[dF]CR-OH |
| 37% | 0% | 18% | 12% | Ac-[Nle]AH[dF]RC-OH |
| 27% | 3% | 26% | 23% | Ac-[Nle]AH[dF]RGC-OH |
| 38% | 13% | 30% | 26% | Heptanoyl-S(Bn)[dPhe(4-Cl)]RC-NH2 |

— patent publication US7396814B2, “Metallopeptide compositions for treatment of sexual dysfunction” (Palatin Technologies, Inc., priority 1995, dated 2008)
